In brackets after ≈: the same amount, converted by molar mass.
Columns and labels:
[1] = system: Staphylococcus aureus cultures; assay: Broth dilution MIC in trypticase soy broth, low and high NaCl (Example 10); format: cell-based; conditions: for MIC: Staphylococcus aureus, TSB
Experimental: This example compares the antibiotic activities of methicillin, cephalothin and cephaloridine with the compounds of Examples 1, 2 and 3, in broth dilution tests. The MIC values, in μg/ml., are against the same Staphylococcus aureus cultures described in Example 9, except that in this example the cultures were grown in trypticase soy broth (TSB). Growing the cultures in two broth cultures, one having a low (0.5 percent) sodium chloride content and one having a high (5.0 percent) sodium chloride content is said to assist in identifying the methicillin-resistant cultures from those which are not methicillin-resistant. […] See Chabbert, Y. A., 1967 Postgrad. Med. J., 43 (suppl); 40-46. One expects that similar changes in MIC values for this type of culture to other β-lactam antibiotics, e.g., various penicillins and cephalosporins, to have similar implications. […] That is, methicillin-resistant S.aureus cultures are susceptible to the cephalosporin antibiotics used in this invention.

[2] = system: Staphylococcus aureus cultures; assay: Agar dilution susceptibility test, phenylthioacetyl cephalosporins vs methicillin resistant S. aureus (Example 9); format: cell-based; conditions: Staphylococcus aureus
Description: This example compares the antibiotic activities of three known compounds, methicillin, cephalothin, and cephaloridine, with three compounds from the above examples, in terms of minimum inhibitory concentration (MIC) values in microgram/milliliter units against various isolates of Staphylococcus aureus cultures. The culture numbers and the procedures used to obtain the reported data are disclosed by W. E. Wick and D. A. Preston in their article "Heterogeneous Methicillin-Resistant Staphylococcus Aureus" which appeared in Progress in Antimicrobial And Anticancer Chemotherapy, Proceedings of the 6th International Congress of Chemotherapy, Volume, 1, U. of Tokyo Press, Tokyo, (1970). In these agardilution susceptibility tests, the inocula were diluted to 10^3 bacteria per spot. Cultures 3055 (benzylpenicillin sensitive) and H232 (benzylpenicillin-resistant) are controls. The remaining cultures are methicillin-resistant, and, except for 3136, are clinical isolates. Culture 3136 is a 4th transfer laboratory selected mutant.

[3] = culture 3130, table part marked b
[4] = culture 3130, table part marked c
[5] = culture 3131, table part marked b
[6] = culture 3131, table part marked c
[7] = culture 3134, table part marked b
[8] = culture 3134, table part marked c
[9] = culture 3135, table part marked b
[10] = culture 3135, table part marked c
[11] = culture 3136, table part marked b
[12] = culture 3136, table part marked c
[13] = culture 3137, table part marked b
[14] = culture 3137, table part marked c
[15] = culture 3138, table part marked b
[16] = culture 3138, table part marked c
[17] = culture 3139, table part marked b
[18] = culture 3139, table part marked c
[19] = culture (Seattle) 966, table part marked b
[20] = culture (Seattle) 966, table part marked c
[21] = culture S61, table part marked b
[22] = culture S61, table part marked c

Structure (SMILES): CC(=O)OCC1=C(C(=O)O)N2C(=O)[C@@H](NC(=O)Cc3cccs3)[C@H]2SC1 [Cephalothin, cephalothin, reference compound]
- difference in MIC values in low versus high salt TSB cultures ([1]; 0.5 percent vs 5.0 percent NaCl, methicillin-resistant S. aureus): fairly wide difference (increase in MIC value from 2 to 64)
- MIC ([1]; culture 3055 (control), table part marked b): 0.5 µg/mL (≈ 1.26 µM)
- MIC ([1]; culture 3055 (control), table part marked c): 0.5 µg/mL (≈ 1.26 µM)
- MIC [1, 3]: 8 µg/mL (≈ 20.2 µM)
- MIC [1, 4]: 64 µg/mL (≈ 161 µM)
- MIC [1, 5]: 2 µg/mL (≈ 5.04 µM)
- MIC [1, 6]: 64 µg/mL (≈ 161 µM)
- MIC ([1]; culture 3132 (first column so headed), table part marked b): 2 µg/mL (≈ 5.04 µM)
- MIC ([1]; culture 3132 (first column so headed), table part marked c): 64 µg/mL (≈ 161 µM)
- MIC ([1]; culture 3132 (second column so headed), table part marked b): 2 µg/mL (≈ 5.04 µM)
- MIC ([1]; culture 3132 (second column so headed), table part marked c): 64 µg/mL (≈ 161 µM)
- MIC [1, 7]: 32 µg/mL (≈ 80.7 µM)
- MIC [1, 8]: 64 µg/mL (≈ 161 µM)
- MIC [1, 9]: 2 µg/mL (≈ 5.04 µM)
- MIC [1, 10]: 64 µg/mL (≈ 161 µM)
- MIC [1, 11]: 2 µg/mL (≈ 5.04 µM)
- MIC [1, 12]: 64 µg/mL (≈ 161 µM)
- MIC [1, 13]: 64 µg/mL (≈ 161 µM)
- MIC [1, 14]: 128 µg/mL (≈ 323 µM)
- MIC [1, 15]: 32 µg/mL (≈ 80.7 µM)
- MIC [1, 16]: 64 µg/mL (≈ 161 µM)
- MIC [1, 17]: 4 µg/mL (≈ 10.1 µM)
- MIC [1, 18]: 32 µg/mL (≈ 80.7 µM)
- MIC [1, 19]: 2 µg/mL (≈ 5.04 µM)
- MIC [1, 20]: 32 µg/mL (≈ 80.7 µM)
- MIC ([1]; culture H232 (control), table part marked b): 0.5 µg/mL (≈ 1.26 µM)
- MIC ([1]; culture H232 (control), table part marked c): 0.5 µg/mL (≈ 1.26 µM)
- MIC ([1]; culture Kavarnick 1138501, table part marked b): 4 µg/mL (≈ 10.1 µM)
- MIC ([1]; culture Kavarnick 1138501, table part marked c): 64 µg/mL (≈ 161 µM)
- MIC [1, 21]: 8 µg/mL (≈ 20.2 µM)
- MIC [1, 22]: 64 µg/mL (≈ 161 µM)
- MIC ([1]; culture S, table part marked b): 8 µg/mL (≈ 20.2 µM)
- MIC ([1]; culture S, table part marked c): 64 µg/mL (≈ 161 µM)
- MIC ([2]; culture 3055 (control, benzylpenicillin sensitive), table part marked b): < 0.25 µg/mL
- MIC ([2]; culture 3055 (control, benzylpenicillin sensitive), table part marked c): < 0.25 µg/mL
- MIC [2, 3]: 8 µg/mL (≈ 20.2 µM)
- MIC [2, 4]: 64 µg/mL (≈ 161 µM)
- MIC [2, 5]: 1 µg/mL (≈ 2.52 µM)
- MIC [2, 6]: 32 µg/mL (≈ 80.7 µM)
- MIC ([2]; culture 3132, table part marked b): 2 µg/mL (≈ 5.04 µM)
- MIC ([2]; culture 3132, table part marked c): 16 µg/mL (≈ 40.4 µM)
- MIC ([2]; culture 3133, table part marked b): 2 µg/mL (≈ 5.04 µM)
- MIC ([2]; culture 3133, table part marked c): 64 µg/mL (≈ 161 µM)
- MIC [2, 7]: 8 µg/mL (≈ 20.2 µM)
- MIC [2, 8]: 64 µg/mL (≈ 161 µM)
- MIC [2, 9]: 2 µg/mL (≈ 5.04 µM)
- MIC [2, 10]: 32 µg/mL (≈ 80.7 µM)
- MIC [2, 11]: 2 µg/mL (≈ 5.04 µM)
- MIC [2, 12]: 32 µg/mL (≈ 80.7 µM)
- MIC [2, 13]: 64 µg/mL (≈ 161 µM)
- MIC [2, 14]: 128 µg/mL (≈ 323 µM)
- MIC [2, 15]: 8 µg/mL (≈ 20.2 µM)
- MIC [2, 16]: 64 µg/mL (≈ 161 µM)
- MIC [2, 17]: 1 µg/mL (≈ 2.52 µM)
- MIC [2, 18]: 32 µg/mL (≈ 80.7 µM)
- MIC [2, 19]: 1 µg/mL (≈ 2.52 µM)
- MIC [2, 20]: 32 µg/mL (≈ 80.7 µM)
- MIC ([2]; culture H232 (control, benzylpenicillin-resistant), table part marked b): < 0.25 µg/mL
- MIC ([2]; culture H232 (control, benzylpenicillin-resistant), table part marked c): < 0.25 µg/mL
- MIC ([2]; culture Kavarmark 1138501, table part marked b): 2 µg/mL (≈ 5.04 µM)
- MIC ([2]; culture Kavarmark 1138501, table part marked c): 32 µg/mL (≈ 80.7 µM)
- MIC [2, 21]: 2 µg/mL (≈ 5.04 µM)
- MIC [2, 22]: 64 µg/mL (≈ 161 µM)

— patent US4175125A, “Method for treating methicillin resistant staphylococcus aureus” (Eli Lilly and Company, priority 1978, dated 1979)
